# Measured values from patent publication US20190134005A1 (BioMarin Pharmaceutical Inc., priority 2016, published 2019).
# Target: T1, human CGT (Homo sapiens, UniProt Q16880)
# T1 sequence (Q16880 21-541): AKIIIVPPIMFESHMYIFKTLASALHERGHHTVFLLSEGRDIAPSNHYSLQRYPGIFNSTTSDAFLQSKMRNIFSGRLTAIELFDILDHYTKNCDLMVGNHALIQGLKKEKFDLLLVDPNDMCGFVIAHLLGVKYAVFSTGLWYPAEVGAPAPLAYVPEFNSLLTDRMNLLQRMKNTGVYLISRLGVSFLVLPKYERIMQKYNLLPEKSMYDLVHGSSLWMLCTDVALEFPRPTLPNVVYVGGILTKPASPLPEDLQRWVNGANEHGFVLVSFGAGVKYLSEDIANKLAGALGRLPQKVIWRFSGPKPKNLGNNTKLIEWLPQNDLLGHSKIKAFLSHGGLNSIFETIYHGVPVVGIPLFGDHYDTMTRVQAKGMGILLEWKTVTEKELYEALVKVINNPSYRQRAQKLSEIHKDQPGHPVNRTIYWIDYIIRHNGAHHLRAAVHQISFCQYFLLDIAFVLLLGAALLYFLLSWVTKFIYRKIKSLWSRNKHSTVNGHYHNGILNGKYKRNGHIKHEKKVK
# Experiment: CGT Enzyme Assay (Biological Example 2, RapidFire/MS/MS method with 0.01% Tween 80 added)
# Format: biochemical
# Conditions: enzymatic assay, CHO/CGT lysate
# How it was run: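 Lysate of CHO cells transfected with full-length human CGT, 0.5% DMSO final, 0.01% Tween 80 added; reactions stopped with methanol:acetonitrile holding internal standard. C6-NBD-dihydro-galactosylceramide and C6-NBD-dihydro-ceramide measured by RapidFire/MS/MS (ESI negative), product peak area normalized to internal standard.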
row,Compound,IC50 [µM]
1,"Cc1ccc(N2C(=O)N(c3ccc(C)cc3)C(C)(C)[C@@H]2c2cccc(OC(F)(F)F)c2)cc1 [Example 21-2, (S)-4,4-dimethyl-1,3-di-p-tolyl-5-(3-(trifluoromethoxy)phenyl)imidazolidin-2-one]",< 1
2,"C[C@H]1[C@@H](c2ccccc2)N(c2ccc(Br)cc2)C(=O)N1c1ccc(Br)cc1 [Example 2-3, (4S,5R)-1,3-bis(4-bromophenyl)-4-methyl-5-phenylimidazolidin-2-one]",1 to 10
3,"CCC[C@]1(C)[C@@H](c2cccc(C#N)c2)N(c2ccc(Cl)cc2)C(=O)N1c1ccc(Cl)cc1 [Example 33-1, 3-((4R,5R)-1,3-bis(4-chlorophenyl)-5-methyl-2-oxo-5-propylimidazolidin-4-yl)benzonitrile]",< 1
4,"O=C1N(c2ccc(Cl)cc2)[C@H]2CCC[C@@]2(c2cccc(C(F)F)c2)N1c1ccc(Cl)cc1 [Example 16-1, (3aS,6aS)-1,3-bis(4-chlorophenyl)-3a-(3-(difluoromethyl)phenyl)hexahydrocyclopenta[d]imidazol-2(1H)-one]",10 to 30
5,"Cc1ccc(N2C(=O)N(c3ccc(C#N)cc3)[C@H](c3cccc(C#N)c3)C23COC3)cc1 [Example 55-1, (R)-3-(7-(4-cyanophenyl)-6-oxo-5-(p-tolyl)-2-oxa-5,7-diazaspiro[3.4]octan-8-yl)benzonitrile]",10 to 30
6,"O=C1N(c2ccc(Cl)cc2)[C@H]2CCC[C@@]2(c2cccc(OC(F)F)c2)N1c1ccc(Cl)cc1 [Example 23-1, (3aS,6aS)-1,3-bis(4-chlorophenyl)-3a-(3-(difluoromethoxy)phenyl)hexahydrocyclopenta[d]imidazol-2(1H)-one]",10 to 30
7,"N#Cc1cccc([C@H]2N(c3ccc(Cl)cc3)C(=O)N(c3ccc(Cl)cc3)C23COC3)c1 [Example 30-1, (R)-3-(5,7-bis(4-chlorophenyl)-6-oxo-2-oxa-5,7-diazaspiro[3.4]octan-8-yl)benzonitrile]",10 to 30
8,"Cc1ccc(N2C(=O)N(c3ccc(C#N)cc3)C3(COC3)[C@@H]2c2cccc(OC(F)(F)F)c2)cc1 [Example 43-2, (S)-4-(6-oxo-7-(p-tolyl)-8-(3-(trifluoromethoxy)phenyl)-2-oxa-5,7-diazaspiro[3.4]octan-5-yl)benzonitrile]",< 1

# Next, values leading:
row,IC50 [µM],Compound
1,< 1,"COC[C@]1(C)[C@H](c2cccc(OC(F)(F)F)c2)N(c2ccc(Cl)cc2)C(=O)N1c1ccc(Cl)cc1 [Example 37-2, (4S,5S)-1,3-bis(4-chlorophenyl)-4-(methoxymethyl)-4-methyl-5-(3-(trifluoromethoxy)phenyl)imidazolidin-2-one]"
2,1 to 10,"COC[C@@]1(C)[C@@H](c2cccc(C#N)c2)N(c2ccc(Cl)cc2)C(=O)N1c1ccc(Cl)cc1 [Example 38-1, 3-((4R,5R)-1,3-bis(4-chlorophenyl)-5-(methoxymethyl)-5-methyl-2-oxoimidazolidin-4-yl)benzonitrile]"
3,10 to 30,"O=C1N(c2ccc(Cl)cc2)[C@@H](c2cccc(OC(F)(F)F)c2)C2(CCCC2)N1c1ccc(Cl)cc1 [Example 15-3, (S)-1,3-bis(4-chlorophenyl)-4-(3-(trifluoromethoxy)phenyl)-1,3-diazaspiro[4.4]nonan-2-one]"
4,10 to 30,"CC[C@]1(C)[C@H](c2cccc(C#N)c2)N(c2ccc(Cl)cc2)C(=O)N1c1ccc(Cl)cc1 [Example 34-4, 3-((4S,5R)-1,3-bis(4-chlorophenyl)-5-ethyl-5-methyl-2-oxoimidazolidin-4-yl)benzonitrile]"
5,1 to 10,"CCC1(CC)[C@H](c2cccc(OC(F)(F)F)c2)N(c2ccc(Cl)cc2)C(=O)N1c1ccc(Cl)cc1 [Example 17-2, (S)-1,3-bis(4-chlorophenyl)-4,4-diethyl-5-(3-(trifluoromethoxy)phenyl)imidazolidin-2-one]"
6,1 to 10,"CC[C@]1(C)[C@@H](c2cccc(OC(F)(F)F)c2)N(c2ccc(Cl)cc2)C(=O)N1c1ccc(Cl)cc1 [Example 19-1, (4R,5R)-1,3-bis(4-chlorophenyl)-4-ethyl-4-methyl-5-(3-(trifluoromethoxy)phenyl)imidazolidin-2-one]"
7,1 to 10,"CCC[C@]1(C)[C@H](c2cccc(C#N)c2)N(c2ccc(Cl)cc2)C(=O)N1c1ccc(Cl)cc1 [Example 33-3, 3-((4S,5R)-1,3-bis(4-chlorophenyl)-5-methyl-2-oxo-5-propylimidazolidin-4-yl)benzonitrile]"
8,1 to 10,C[C@]1(C(F)(F)F)[C@@H](c2cccc(OC(F)(F)F)c2)N(c2ccc(Cl)cc2)C(=O)N1c1ccc(Cl)cc1 [Example 25-2]
